From patent US9212391B2, “Method for determining DNA fragmentation in microorganisms” (Universidad Autonoma de Madrid, priority 2006, dated 2015)
Converted amounts (≈) assume the structure as drawn. “Also recorded” adds a separate entry of the source. Read-outs that look alike come from different tables or passages of the source.

Assays:
[1] = system: Escherichia coli strain TG1 (sensitive strain); conditions: for Vital Stain Empty Capsules, Sensitive Strain: 40 minutes
[2] = system: Escherichia coli strain TG1 (sensitive strain); assay: DNA fragmentation / DNA damage level by the process of the invention (microgel, lysis, SYBR Gold); conditions: for DNA damage (in words): 300 micrograms/ml
[3] = system: Escherichia coli strain sensitive (TG1); assay: Growth inhibition MIC (commercial test), sensitive strain; type: cell-based; conditions: read-out: minimum inhibitory concentration (MIC) of growth
[4] = system: Escherichia coli strain resistant to ciprofloxacin; assay: Growth inhibition MIC (commercial test), resistant strain; type: cell-based; conditions: maximum concentration of the commercial test
[5] = system: Escherichia coli strain resistant to ciprofloxacin; conditions: 40 minutes, LB medium
[6] = 300 μg/ml, 40 min, exponential phase in LB medium

Compound: CC1(C)S[C@@H]2[C@H](NC(=O)[C@H](N)c3ccccc3)C(=O)N2[C@H]1C(=O)O [Ampicillin, ampicillin]
- Vital Stain Empty Capsules [1, 6]: 5.00%
- Vital Stain Empty Capsules ([1]; 300 micrograms/ml, 20 minutes): 0.67%
- Vital Stain Empty Capsules ([1]; 300 micrograms/ml, 24 hours): 75.97%
- DNA Fragmentation (percentage of bacteria with fragmented DNA) [2, 6]: 4.20%
- DNA damage (in words) ([2]; 20 minutes): differences were not observed with respect to the control; also recorded: DNA fragments are not observed
- DNA damage (in words) ([2]; 24 hours): massive presence of punctiform degraded DNA fragments; also recorded: the bottom is covered with DNA fragments

Compound: O=C(O)c1cn(C2CC2)c2cc(N3CCNCC3)c(F)cc2c1=O [Ciprofloxacin, ciprofloxacin]
- MIC [3]: 0.012 µg/mL (≈ 0.0362 µM)
- MIC [4]: > 32 µg/mL
- Vital Stain Empty Capsules, Resistant Strain ([5]; 0.50 μg/ml): 0.00%
- Vital Stain Empty Capsules, Resistant Strain ([5]; 1.00 μg/ml): 0.10%
- Vital Stain Empty Capsules, Resistant Strain ([5]; 2.50 μg/ml): 0.10%
- Vital Stain Empty Capsules, Resistant Strain ([5]; 10.00 μg/ml): 0.15%
- Vital Stain Empty Capsules, Sensitive Strain ([1]; 0.003 μg/ml, exponential growth in LB medium): 0.70%
- Vital Stain Empty Capsules, Sensitive Strain ([1]; 0.006 μg/ml, exponential growth in LB medium): 0.76%
- Vital Stain Empty Capsules, Sensitive Strain ([1]; 0.012 μg/ml, exponential growth in LB medium): 1.06%
- Vital Stain Empty Capsules, Sensitive Strain ([1]; 0.100 μg/ml, exponential growth in LB medium): 1.40%
- Vital Stain Empty Capsules, Sensitive Strain ([1]; 0.50 μg/ml, LB medium): 0.05%
- Vital Stain Empty Capsules, Sensitive Strain ([1]; 1.00 μg/ml, LB medium): 0.00%
- Vital Stain Empty Capsules, Sensitive Strain ([1]; 2.50 μg/ml, LB medium): 0.15%
- Vital Stain Empty Capsules, Sensitive Strain ([1]; 10.00 μg/ml, LB medium): 0.48%
- Vital Stain Empty Capsules ([1]; 25 μg/ml, 40 min): 0.30%
- minimum incubation time at which evident DNA damage was detected ([2]; 1 μg/ml): 5 min
- DNA Fragmentation (percentage of bacteria with fragmented DNA) ([2]; 25 μg/ml, 40 min): 100.00%
- DNA damage level ([2]; 0.006 micrograms/ml, 40 minutes): intermediate between level 1 and 2
- minimum time of incubation to detect a minimal effect at DNA level (incl. […] processing) ([2]; 1 microgram/ml): 6.5 min
- DNA damage level ([2]; 10 micrograms/ml for 40 minutes, immediately after the treatment (0 min after wash)): 3-4
- size of the bacterial capsules versus the other assayed times ([2]; 10 micrograms/ml for 40 minutes, then 60 and 90 minutes in ciprofloxacin-free medium, image analysis): increases about double
- time in antibiotic-free medium at which a statistically significant decrease of the fragment diffusion halo begins to be detected ([2]; 10 micrograms/ml for 40 minutes, then washed, image analysis, p<0.05): 15 min

Compound: OO [H2O2, hydrogen peroxide]
- Vital Stain Empty Capsules ([1]; 10 mM, 10 min): 0.30%
- Vital Stain Permeable ([1]; 10 mM, 10 min): 5.00%
- DNA Fragmentation (percentage of bacteria with fragmented DNA) ([2]; 10 mM, 10 min): 100.00%
- DNA fragmentation (in words) ([2]; 10 mM, 10 minutes): massive Escherichia coli DNA fragmentation

Compound: gentamicin
- Vital Stain Empty Capsules [1, 6]: 0.50%
- Vital Stain Permeable [1, 6]: 10.00%
- DNA Fragmentation (percentage of bacteria with fragmented DNA) [2, 6]: 3.70%
